Key:
human cathepsin K = human cathepsin K (UniProt P43236, Y175D/V274L, species not given); test: Cathepsin K Assay; assay type: biochemical; conditions: IP from dose response curve; Z-Leu-Arg-AMC substrate, pH 5.5; read-out: hrbCat K (IP (nM))
human cathepsin F = target: T1, human cathepsin F (Homo sapiens, UniProt Q9UBX1); test: Cathepsin F Assay; assay type: biochemical; conditions: IP from dose response curve; Z-Phe-Arg-AMC substrate, pH 5.5; read-out: hCat F (IP (nM))
T1 sequence (Q9UBX1 271-484): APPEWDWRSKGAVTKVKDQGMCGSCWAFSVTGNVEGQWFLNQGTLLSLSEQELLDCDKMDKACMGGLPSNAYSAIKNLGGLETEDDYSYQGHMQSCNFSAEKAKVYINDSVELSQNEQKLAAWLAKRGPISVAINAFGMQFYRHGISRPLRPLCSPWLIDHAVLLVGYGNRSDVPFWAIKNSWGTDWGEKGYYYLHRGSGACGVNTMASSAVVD
How it was run: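 Human cathepsin F (10 nM) preincubated 15 min at room temperature with compounds in 50 mM MES pH 5.5, 2.5 mM EDTA, 2.5 mM DTT, 10% DMSO. Z-Phe-Arg-AMC (8 μM) added; AMC release read by fluorescence (Ex 360/Em 460 nm) over 20 min, inhibition fit to dose-response model.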

N#CC1(NC(=O)[C@@H]2CCCC[C@H]2c2nn(-c3ccc(F)cc3)cc2-c2ccc(N3CCS(=O)(=O)CC3)cc2)CC1 [Example 85, (1R,2R)-N-(1-cyanocyclopropyl)-2-(4-(4-(1,1-dioxidothiomorpholino)phen-yl)-1-(4-fluorophenyl)-1H-pyrazol-3-yl)cyclohexanecarboxamide]
IC50 (human cathepsin K): 0.69 nM | IC50 (human cathepsin F): 352 nM

N#CC1(NC(=O)[C@@H]2CCCC[C@H]2c2nn(-c3cccc(F)c3)cc2-c2ccc(N3CCS(=O)(=O)CC3)cc2)CC1 [Example 86, (1R,2R)-N-(1-cyanocyclopropyl)-2-(4-(4-(1,1-dioxidothiomorpholino)phen-yl)-1-(3-fluorophenyl)-1H-pyrazol-3-yl)cyclohexanecarboxamide]
IC50 (human cathepsin K): 0.33 nM | IC50 (human cathepsin F): 268 nM

COc1ccc(-n2cc(-c3ccc(N4CCS(=O)(=O)CC4)cc3)c([C@@H]3CCCC[C@H]3C(=O)NC3(C#N)CC3)n2)cc1 [Example 87, (1R,2R)-N-(1-cyanocyclopropyl)-2-(4-(4-(1,1-dioxidothiomorpholino)phen-yl)-1-(4-methoxyphenyl)-1H-pyrazol-3-yl)cyclohexanecarboxamide]
IC50 (human cathepsin K): 0.99 nM | IC50 (human cathepsin F): 740 nM

N#CC1(NC(=O)[C@@H]2CCCC[C@H]2c2nn(-c3ccc(F)cc3)cc2-c2ccc(C(=O)N3CCOCC3)cc2)CC1 [Example 88, (1R,2R)-N-(1-cyanocyclopropyl)-2-(1-(4-fluorophenyl)-4-(4-(morpholine-4-carbonyl)phenyl)-1H-pyrazol-3-yl)cyclohexanecarboxamide]
IC50 (human cathepsin K): 6.9 nM | IC50 (human cathepsin F): 1010 nM

N#CC1(NC(=O)[C@@H]2CCCC[C@H]2c2nn(-c3ccc(F)cc3)cc2-c2ccc(C(=O)N3CCNC(=O)C3)cc2)CC1 [Example 89, (1R,2R)-N-(1-cyanocyclopropyl)-2-(1-(4-fluorophenyl)-4-(4-(3-oxopiperazine-1-carbonyl)phenyl)-1H-pyrazol-3-yl)cyclohexanecarboxamide]
IC50 (human cathepsin K): 9.37 nM | IC50 (human cathepsin F): 989 nM

N#CC1(NC(=O)[C@@H]2CCCC[C@H]2c2nn(-c3ccc(F)cc3)cc2-c2ccc(C(=O)N3CCC(O)CC3)cc2)CC1 [Example 90, (1R,2R)-N-(1-cyanocyclopropyl)-2-(1-(4-fluorophenyl)-4-(4-(4-hydroxypiperidine-1-carbonyl)phenyl)-1H-pyrazol-3-yl)cyclohexanecarboxamide]
IC50 (human cathepsin K): 8.01 nM | IC50 (human cathepsin F): 1760 nM

N#Cc1ccccc1-n1cc(-c2ccc(N3CCS(=O)(=O)CC3)cc2)c([C@@H]2CCCC[C@H]2C(=O)NC2(C#N)CC2)n1 [Example 91, (1R,2R)-N-(1-cyanocyclopropyl)-2-(1-(2-cyanophenyl)-4-(4-(1,1-dioxidothiomorpholino)phen-yl)-1H-pyrazol-3-yl)cyclohexanecarboxamide]
IC50 (human cathepsin K): 1.02 nM | IC50 (human cathepsin F): 1020 nM

COc1ccccc1-n1cc(-c2ccc(N3CCS(=O)(=O)CC3)cc2)c([C@@H]2CCCC[C@H]2C(=O)NC2(C#N)CC2)n1 [Example 92, (1R,2R)-N-(1-cyanocyclopropyl)-2-(4-(4-(1,1-dioxidothiomorpholino)phen-yl)-1-(2-methoxyphenyl)-1H-pyrazol-3-yl)cyclohexanecarboxamide]
IC50 (human cathepsin K): 0.95 nM | IC50 (human cathepsin F): 484 nM

CS(=O)(=O)N1CCN(C(=O)c2ccc(-c3cn(-c4ccc(F)cc4)nc3[C@@H]3CCCC[C@H]3C(=O)NC3(C#N)CC3)cc2)CC1 [Example 93, (1R,2R)-N-(1-cyanocyclopropyl)-2-(1-(4-fluorophenyl)-4-(4-(4-(methylsulfonyl)piperazine-1-carbonyl)phenyl)-1H-pyrazol-3-yl)cyclohexanecarboxamide]
IC50 (human cathepsin K): 5.02 nM | IC50 (human cathepsin F): 2350 nM

CS(=O)(=O)C1CN(c2ccc(-c3cn(-c4ccc(F)cc4)nc3[C@@H]3CCCC[C@H]3C(=O)NC3(C#N)CC3)cc2)C1 [Example 94, (1R,2R)-N-(1-cyanocyclopropyl)-2-(1-(4-fluorophenyl)-4-(4-(3-(methylsulfonyl)azetidin-1-yl)phenyl)-1H-pyrazol-3-yl)cyclohexanecarboxamide]
IC50 (human cathepsin K): 2.57 nM | IC50 (human cathepsin F): 2780 nM

N#CC1(NC(=O)[C@@H]2CCCC[C@H]2c2nn(-c3ccc(Cl)cc3)cc2-c2ccc(N3CCS(=O)(=O)CC3)cc2)CC1 [Example 95, (1R,2R)-2-(1-(4-chlorophenyl)-4-(4-(1,1-dioxidothiomorpholino)phen-yl)-1H-pyrazol-3-yl)-N-(1-cyanocyclopropyl)cyclohex-anecarboxamide]
IC50 (human cathepsin K): 0.73 nM | IC50 (human cathepsin F): 402 nM

CC(C)(O)c1cccc(-n2cc(-c3ccc(N4CCS(=O)(=O)CC4)cc3)c([C@@H]3CCCC[C@H]3C(=O)NC3(C#N)CC3)n2)c1 [Example 96, (1R,2R)-N-(1-cyanocyclopropyl)-2-(4-(4-(1,1-dioxidothiomorpholino)phen-yl)-1-(3-(2-hydroxypropan-2-yl)phenyl)-1H-pyrazol-3-yl)cyclohexanecarboxamide]
IC50 (human cathepsin K): 1.27 nM | IC50 (human cathepsin F): 824 nM

CC(C)(O)c1ccc(-n2cc(-c3ccc(N4CCS(=O)(=O)CC4)cc3)c([C@@H]3CCCC[C@H]3C(=O)NC3(C#N)CC3)n2)cc1 [Example 97, (1R,2R)-N-(1-cyanocyclopropyl)-2-(4-(4-(1,1-dioxidothiomorpholino)phen-yl)-1-(4-(2-hydroxypropan-2-yl)phenyl)-1H-pyrazol-3-yl)cyclohexanecarboxamide]
IC50 (human cathepsin K): 0.8 nM | IC50 (human cathepsin F): 764 nM

N#CC1(NC(=O)[C@@H]2CCCC[C@H]2c2nn(-c3ccccc3F)cc2-c2ccc(N3CCS(=O)(=O)CC3)cc2)CC1 [Example 98, (1R,2R)-N-(1-cyanocyclopropyl)-2-(4-(4-(1,1-dioxidothiomorpholino)phen-yl)-1-(2-fluorophenyl)-1H-pyrazol-3-yl)cyclohexanecarboxamide]
IC50 (human cathepsin K): 0.91 nM | IC50 (human cathepsin F): 946 nM

N#CC1(NC(=O)[C@@H]2CCCC[C@H]2c2nn(-c3cccc(Cl)c3)cc2-c2ccc(N3CCS(=O)(=O)CC3)cc2)CC1 [Example 99, (1R,2R)-2-(1-(3-chlorophenyl)-4-(4-(1,1-dioxidothiomorpholino)phen-yl)-1H-pyrazol-3-yl)-N-(1-cyanocyclopropyl)cyclohex-anecarboxamide]
IC50 (human cathepsin K): 0.48 nM | IC50 (human cathepsin F): 379 nM

N#Cc1ccc(-n2cc(-c3ccc(N4CCS(=O)(=O)CC4)cc3)c([C@@H]3CCCC[C@H]3C(=O)NC3(C#N)CC3)n2)cc1 [Example 100, (1R,2R)-N-(1-cyanocyclopropyl)-2-(1-(4-cyanophenyl)-4-(4-(1,1-dioxidothiomorpholino)phen-yl)-1H-pyrazol-3-yl)cyclohexanecarboxamide]
IC50 (human cathepsin K): 0.87 nM | IC50 (human cathepsin F): 212 nM

N#Cc1cccc(-n2cc(-c3ccc(N4CCS(=O)(=O)CC4)cc3)c([C@@H]3CCCC[C@H]3C(=O)NC3(C#N)CC3)n2)c1 [Example 101, (1R,2R)-N-(1-cyanocyclopropyl)-2-(1-(3-cyanophenyl)-4-(4-(1,1-dioxidothiomorpholino)phen-yl)-1H-pyrazol-3-yl)cyclohexanecarboxamide]
IC50 (human cathepsin K): 0.99 nM | IC50 (human cathepsin F): 452 nM

N#CC1(NC(=O)[C@@H]2CCCC[C@H]2c2nn(-c3ccccc3Cl)cc2-c2ccc(N3CCS(=O)(=O)CC3)cc2)CC1 [Example 102, (1R,2R)-2-(1-(2-chlorophenyl)-4-(4-(1,1-dioxidothiomorpholino)phen-yl)-1H-pyrazol-3-yl)-N-(1-cyanocyclopropyl)cyclohex-anecarboxamide]
IC50 (human cathepsin K): 2.9 nM | IC50 (human cathepsin F): 643 nM

Cc1cc(C#N)ccc1-n1cc(-c2ccc(N3CCS(=O)(=O)CC3)cc2)c([C@@H]2CCCC[C@H]2C(=O)NC2(C#N)CC2)n1 [Example 103, (1R,2R)-2-(1-(4-cyano-2-methylphenyl)-4-(4-(1,1-dioxidothiomorpholino)phen-yl)-1H-pyrazol-3-yl)-N-(1-cyanocyclopropyl)cyclohex-anecarboxamide]
IC50 (human cathepsin K): 2.17 nM | IC50 (human cathepsin F): 622 nM

N#Cc1ccc(-n2cc(-c3ccc(N4CCS(=O)(=O)CC4)cc3)c([C@@H]3CCCC[C@H]3C(=O)NC3(C#N)CC3)n2)c(Cl)c1 [Example 104, (1R,2R)-2-(1-(2-chloro-4-cyanophenyl)-4-(4-(1,1-dioxidothiomorpholino)phen-yl)-1H-pyrazol-3-yl)-N-(1-cyanocyclopropyl)cyclohex-anecarboxamide]
IC50 (human cathepsin K): 2.02 nM | IC50 (human cathepsin F): 411 nM

N#Cc1cc(Cl)ccc1-n1cc(-c2ccc(N3CCS(=O)(=O)CC3)cc2)c([C@@H]2CCCC[C@H]2C(=O)NC2(C#N)CC2)n1 [Example 105, (1R,2R)-2-(1-(4-chloro-2-cyanophenyl)-4-(4-(1,1-dioxidothiomorpholino)phen-yl)-1H-pyrazol-3-yl)-N-(1-cyanocyclopropyl)cyclohex-anecarboxamide]
IC50 (human cathepsin K): 3.23 nM | IC50 (human cathepsin F): 1260 nM

N#Cc1cc(F)ccc1-n1cc(-c2ccc(N3CCS(=O)(=O)CC3)cc2)c([C@@H]2CCCC[C@H]2C(=O)NC2(C#N)CC2)n1 [Example 106, (1R,2R)-2-(1-(2-cyano-4-fluorophenyl)-4-(4-(1,1-dioxidothiomorpholino)phen-yl)-1H-pyrazol-3-yl)-N-(1-cyanocyclopropyl)cyclohex-anecarboxamide]
IC50 (human cathepsin K): 2.88 nM | IC50 (human cathepsin F): 1920 nM

Cc1ccc(-n2cc(-c3ccc(N4CCS(=O)(=O)CC4)cc3)c([C@@H]3CCCC[C@H]3C(=O)NC3(C#N)CC3)n2)c(C#N)c1 [Example 107, (1R,2R)-2-(1-(2-cyano-4-methylphenyl)-4-(4-(1,1-dioxidothiomorpholino)phen-yl)-1H-pyrazol-3-yl)-N-(1-cyanocyclopropyl)cyclohex-anecarboxamide]
IC50 (human cathepsin K): 3 nM | IC50 (human cathepsin F): 1400 nM

From patent US9656990B2, “Cathepsin cysteine protease inhibitors” (Merck Sharp & Dohme Corp., priority 2014, dated 2017)
